Assay results taken from PMC4038168 (Chemical communications (Cambridge, England), 2014).
Entries after “also recorded” stand apart in the source; their conditions may differ.

Experiments:
cannabinoid receptor CB1 [1] = target: T1, cannabinoid receptor CB1 (Homo sapiens, UniProt P21554); test: CB1 functional assay; assay type: cell-based
rat FAAH (r-FAAH) = target: T2, rat FAAH (r-FAAH) (Rattus norvegicus, UniProt P97612); test: rat FAAH inhibition; assay type: biochemical
T2 sequence (P97612 1-579): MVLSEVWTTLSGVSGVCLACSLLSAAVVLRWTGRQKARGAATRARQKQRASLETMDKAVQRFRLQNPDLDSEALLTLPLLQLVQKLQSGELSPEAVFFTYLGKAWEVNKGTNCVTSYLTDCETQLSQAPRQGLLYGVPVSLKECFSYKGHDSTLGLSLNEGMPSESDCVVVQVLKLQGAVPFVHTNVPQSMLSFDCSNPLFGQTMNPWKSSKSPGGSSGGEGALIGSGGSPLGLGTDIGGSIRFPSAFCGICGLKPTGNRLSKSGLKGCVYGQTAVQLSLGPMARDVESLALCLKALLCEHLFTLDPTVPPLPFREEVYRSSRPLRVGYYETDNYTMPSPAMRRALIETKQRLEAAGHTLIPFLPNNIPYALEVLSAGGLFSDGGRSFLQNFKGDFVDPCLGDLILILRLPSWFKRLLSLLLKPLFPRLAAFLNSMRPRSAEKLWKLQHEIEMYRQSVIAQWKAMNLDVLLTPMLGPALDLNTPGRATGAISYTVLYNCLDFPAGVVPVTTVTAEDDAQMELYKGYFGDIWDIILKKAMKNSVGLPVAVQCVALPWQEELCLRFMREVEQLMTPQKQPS

human FAAH (h-FAAH) = target: T3, human FAAH (h-FAAH) (Homo sapiens, UniProt O00519); test: human FAAH inhibition; assay type: biochemical
T3 sequence (O00519 1-579): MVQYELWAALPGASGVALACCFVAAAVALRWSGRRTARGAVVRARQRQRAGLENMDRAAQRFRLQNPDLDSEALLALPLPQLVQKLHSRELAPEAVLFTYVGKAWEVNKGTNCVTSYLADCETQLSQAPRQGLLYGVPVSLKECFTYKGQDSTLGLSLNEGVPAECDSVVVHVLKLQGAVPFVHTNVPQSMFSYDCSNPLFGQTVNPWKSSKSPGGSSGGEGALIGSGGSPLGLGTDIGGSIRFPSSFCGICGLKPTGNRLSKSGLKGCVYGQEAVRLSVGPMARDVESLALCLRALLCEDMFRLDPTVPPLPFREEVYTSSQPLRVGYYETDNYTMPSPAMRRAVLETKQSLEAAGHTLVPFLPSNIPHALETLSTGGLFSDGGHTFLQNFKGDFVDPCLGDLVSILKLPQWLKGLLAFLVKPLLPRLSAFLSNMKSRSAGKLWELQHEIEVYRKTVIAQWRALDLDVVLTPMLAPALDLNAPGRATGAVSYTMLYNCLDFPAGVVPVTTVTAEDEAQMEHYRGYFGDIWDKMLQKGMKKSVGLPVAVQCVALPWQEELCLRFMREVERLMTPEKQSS

human DRD3 = human DRD3 (Homo sapiens, UniProt P35462); test: human DRD3 functional assay; assay type: cell-based
cannabinoid receptor CB1 [2] = target: T1, cannabinoid receptor CB1; conditions: cited from earlier work

T1 sequence (P21554 whole entry): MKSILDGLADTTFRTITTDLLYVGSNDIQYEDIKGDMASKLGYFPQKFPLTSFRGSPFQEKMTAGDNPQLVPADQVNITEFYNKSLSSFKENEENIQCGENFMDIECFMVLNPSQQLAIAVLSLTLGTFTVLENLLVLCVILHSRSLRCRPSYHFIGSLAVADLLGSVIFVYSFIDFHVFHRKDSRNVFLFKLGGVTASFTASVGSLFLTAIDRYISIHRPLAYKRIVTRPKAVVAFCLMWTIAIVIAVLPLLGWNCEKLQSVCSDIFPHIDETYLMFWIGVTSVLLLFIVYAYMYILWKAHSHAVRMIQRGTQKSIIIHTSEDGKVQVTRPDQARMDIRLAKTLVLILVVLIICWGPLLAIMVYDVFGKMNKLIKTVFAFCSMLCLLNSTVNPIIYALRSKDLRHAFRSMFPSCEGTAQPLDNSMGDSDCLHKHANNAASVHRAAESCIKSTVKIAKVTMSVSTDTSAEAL
human DRD3, sequence (P35462 whole entry): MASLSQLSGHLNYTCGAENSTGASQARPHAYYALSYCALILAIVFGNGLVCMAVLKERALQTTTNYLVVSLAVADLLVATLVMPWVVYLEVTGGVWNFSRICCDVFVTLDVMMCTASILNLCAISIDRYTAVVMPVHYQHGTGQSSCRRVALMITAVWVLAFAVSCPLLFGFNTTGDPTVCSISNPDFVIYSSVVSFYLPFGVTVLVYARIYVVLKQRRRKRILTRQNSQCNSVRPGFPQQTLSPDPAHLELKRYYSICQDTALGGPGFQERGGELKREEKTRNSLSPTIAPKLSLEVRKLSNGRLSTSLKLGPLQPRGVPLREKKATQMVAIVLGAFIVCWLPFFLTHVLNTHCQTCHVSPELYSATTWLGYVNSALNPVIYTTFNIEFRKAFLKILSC

EC50 (cannabinoid receptor CB1 [1]; read-out: CB1 EC50) [µM] | Compound | CB1 activity (in words) (cannabinoid receptor CB1 [1]) | inhibitory activity on r-FAAH (in words) (rat FAAH (r-FAAH)) | inhibitory activity on h-FAAH (in words) (human FAAH (h-FAAH)) | activity on DRD3 (in words) (human DRD3) | effect on CB1 (in words) (cannabinoid receptor CB1 [2])
 | COc1ccccc1N1CCN(CCCCNC(=O)c2ccc3ccccc3c2)CC1 [Compound 3, BP-897] | completely devoid of CB1 activity; also recorded: did not show any activity | did not show any significant inhibitory activity | did not show any significant inhibitory activity |  | 
 | NC(=O)c1cccc(-c2cccc(OC(=O)NC3CCCCC3)c2)c1 [Compound 5, URB597] |  |  |  | no activity | no effect
0.84 | O=C(NCCCCN1CCN(c2cccc(Cl)c2Cl)CC1)c1ccc(-c2ccccn2)cc1 [Compound 2, CJB090] | rather potent CB1 agonist | did not show any significant inhibitory activity | did not show any significant inhibitory activity |  | 
